Results on 19 compounds are retold here after patent US4505916A, “Method for the treatment of psychoneurotic states by administration of derivatives of 2-(4-piperidyl)-1-(4-quinolyl)-ethanone” (Pharmindustrie, priority 1979, dated 1985).

A word on the ED50: it is the midpoint of the dose-response relation. Lower therefore signals an effect at a small dose. Usually pKi stands for −log10 of the Ki, conventionally taken in molar units. Low readings indicate a large Ki, high ones a small Ki. Broadly, the pKd is the Kd on a negative log10 scale, so that one unit is a factor of ten.

pKd, pKi: −log10 of the molar value.

The subject of the first experiment is ventricular arhythmia caused by aconitine. Briefly: Aconitine test on the rat (antiarhythmic activity). The format is in vivo. The following applies: iv. Here is the method:
The antiarhythmic activity of the compounds of the present invention has been shown with the help of the aconitine test on the rat.
The principle of the technique rests on the induction time of the ventricular arhythmia caused by aconitine which slowly perfused in rats. An antiarhythmic substance retards the appearance of the arhythmia and the delay is proportional to the activity of the molecule.
Groups of 5 male rats are used. An individual anaesthesia is carried out (10% urethane: 1 g/kg/ip) to permit a catheterisation of the vein of the penis. The electrocardiogram is recorded. At the time T=0 the substance studied is injected in the form of an aqueous solution, at the rate of 2.5 ml of solution per kg in 30 seconds. At the time T=90 seconds, that is 1 minute after the end of the injection, the aconitine is perfused at the rate of 20 μg per minute until the appearance of supraventricular extra systoles. The time of perfusion of the aconitine is noted.
The results are expressed by an ED50 which is the dose in mg/kg increasing by 50% the time of perfusion of the aconitine in comparison with the perfusion time of aconitine for the control animals.
In turn, `C=C[C@H]1CNCC[C@H]1CCc1ccnc2ccc(OC)cc12` [Example 14, 6-METHOXY-4-{2-[3(R)-ETHENYL-4(R)-PIPERIDYL]-ETHYL}-QUINOLINE] gave an ED50 of 5 mg/kg.

For the compound `C=C[C@@H]1CNCC[C@H]1CCc1ccnc2ccc(OC)cc12` [Example 26, 6-methoxy-4-{2-[3(S)-ethenyl-4(R)-piperidyl]-ethyl}-quinoline], the ED50 is 2.6 mg/kg. Same read-out and setting: with `c1ccc(-c2cc(CCC3CCNCC3)c3ccccc3n2)cc1` [Example 16, 2-phenyl-4-[2-(4-piperidyl)-ethyl]-quinoline] the figure was 1.3 mg/kg.

The target in the next experiment is cerebral receiving sites of the benzodiazepines. The experiment can be described thus: Displacement of tritiated Diazepam from its binding site (method of MOHLER et al.). The arrangement: species or system rat. The following applies: displacement of tritiated Diazepam (3H Diazepam) from its binding site. Here is the method: The medicaments of the class of benzodiazepines are used as anticonvulsivants, as hypnotics and for the treatment of states of anxiety and of various psychoneurotic states for treatment of warm blooded mammals. The presence of specific receptors of the benzodiazepines in the membranes of the rat's brain has been shown [SQUIRES et al., Nature, 266, (1977), 732] and the degree of affinity of the benzodiazepines for these receptors, which is measured by their aptitude for displacing the tritiated Diazepam from its binding sites, is in good correlation with the pharmacodynamic effects observed on the animal and on man.
I--AFFINITY FOR THE CEREBRAL RECEIVING SITES OF THE BENZODIAZEPINES
The products have been tested according to the method of MOHLER et al, Life Science, 1977, 20, 2101, which is relied on herein.
Regarding `O=C(CC1CCNCC1)c1cc(-c2ccccc2)nc2ccccc12` [Example 5, 1-(2-phenyl-4-quinolyl)-2-(4-piperidyl)-ethanone], the pKi is 6.30. Same read-out and setting: with `O=C(CC1CCNCC1)c1cc(-c2ccc(F)cc2)nc2ccccc12` [Example 6, 1-[2-(4-fluoro-phenyl)-4-quinolyl]-2-(4-piperidyl)-ethanone] the figure was 5.10; with `COc1ccc2nc(-c3ccccc3)cc(CCC3CCNCC3)c2c1` [Example 25, 6-methoxy-2-phenyl-4-[2-(4-piperidyl)-ethyl]-quinoline], 4.96; with `Clc1ccc(-c2cc(CCC3CCNCC3)c3ccccc3n2)cc1` [Example 17, 2-(4-chloro-phenyl)-4-[2-(4-piperidyl)-ethyl]-quinoline], 6.40.

Compound `c1ccc(CCN2CCC(CCc3cc(-c4ccccc4)nc4ccccc34)CC2)cc1` [Example 22, 4-{2-[1-(2-phenyl-ethyl)-4-piperidyl]-ethyl}-2-phenyl-quinoline] had a pKi of 6.30. The pKi values of the last two compounds are within 0.2 log units of each other. On the same count and under the same terms, with `O=C(CC1CCNCC1)c1cc(-c2ccc(Cl)cc2)nc2ccccc12` [Example 7, 1-[2-(4-CHLORO-PHENYL)-4-QUINOLYL]-2-(4-PIPERIDYL)-ETHANONE] the figure was 5.35; with `C=C[C@H]1CNCC[C@H]1CC(=O)c1ccnc2ccc(OC)cc12` [Example 3, 2-[3(R)-ethenyl-4(S)-piperidyl]-1-(6-methoxy-4-quinolyl)-ethanone], 4.80. Same read-out and setting: with `Cc1ccc(-c2cc(C(=O)CC3CCNCC3)c3ccccc3n2)cc1` [Example 8, 1-[2-(4-METHYL-PHENYL)-4-QUINOLYL]-2-(4-PIPERIDYL)-ETHANONE] the figure was 5.80.

`C=C[C@H]1CNCC[C@H]1CCc1ccnc2ccc(OC)cc12` [Example 14, 6-METHOXY-4-{2-[3(R)-ETHENYL-4(R)-PIPERIDYL]-ETHYL}-QUINOLINE] had a pKi of 5.30. Consider `Cc1ccc(-c2cc(CCC3CCNCC3)c3ccccc3n2)cc1` [Example 19, 2-(4-METHYL-PHENYL)-4-[2-(4-PIPERIDYL)-ETHYL]-QUINOLINE], for which the pKi is 6.22.

Compound `COc1ccc2nccc(CCC3CCNCC3)c2c1` [Example 13, 6-METHOXY-4-[2-(4-PIPERIDYL)-ETHYL]-QUINOLINE] gave a pKi of 5.15. Regarding `COc1ccc(-c2cc(CCC3CCNCC3)c3ccccc3n2)cc1` [Example 18, 2-(4-METHOXY-PHENYL)-4-[2-(4-PIPERIDYL)-ETHYL]-QUINOLINE], the pKi is 5.89. Same read-out and setting: with `c1ccc2c(CCC3CCNCC3)ccnc2c1` [Example 24, 4-[2-(4-piperidyl)-ethyl]-quinoline] the figure was 4.89.

Take `CN1CCC(CCc2cc(-c3ccccc3)nc3ccccc23)CC1` [Example 23, 4-[2-(1-METHYL-4-PIPERIDYL)-ETHYL]-2-PHENYL-QUINOLINE]: the pKi is 7.00. Still for that read-out and setting: with `COc1ccc(-c2cc(C(=O)CC3CCNCC3)c3ccccc3n2)cc1` [Example 9, 1-[2-(4-methoxy-phenyl)-4-quinolyl]-2-(4-piperidyl)ethanone] the figure was 5.30. Still for that read-out and setting: with `C=C[C@H]1CNCC[C@H]1CC(=O)c1cc(-c2ccccc2)nc2ccccc12` [Example 11, 2-[3(R)-ethenyl-4(S)-piperidyl]-1-(2-phenyl-4-quinolyl)ethanone] the figure was 5.70. Still for that read-out and setting: with `c1ccc(-c2cc(CCC3CCNCC3)c3ccccc3n2)cc1` [Example 16, 2-phenyl-4-[2-(4-piperidyl)-ethyl]-quinoline] the figure was 6.70.

Another experiment has the same target.
Experiment: not given
The note with it: 3H Diazepam; constant used in the formula for Ki; read-out: KD, constant of affinity; cited from earlier work.
In the case of `CN1C(=O)CN=C(c2ccccc2)c2cc(Cl)ccc21` [^3 H Diazepam], the pKd is 8.56.
